According to patent publication US6583180B2, “Glucocorticoid receptor modulators” (Abbott Laboratories, priority 2001, dated 2003):

Target: T1, Human glucocorticoid receptors (Homo sapiens, UniProt P04150)
T1 construct: made in house; host or cells: Sf9 insect cells, recombinant baculovirus (BAC-TO-BAC)
T1 sequence (P04150 1-777): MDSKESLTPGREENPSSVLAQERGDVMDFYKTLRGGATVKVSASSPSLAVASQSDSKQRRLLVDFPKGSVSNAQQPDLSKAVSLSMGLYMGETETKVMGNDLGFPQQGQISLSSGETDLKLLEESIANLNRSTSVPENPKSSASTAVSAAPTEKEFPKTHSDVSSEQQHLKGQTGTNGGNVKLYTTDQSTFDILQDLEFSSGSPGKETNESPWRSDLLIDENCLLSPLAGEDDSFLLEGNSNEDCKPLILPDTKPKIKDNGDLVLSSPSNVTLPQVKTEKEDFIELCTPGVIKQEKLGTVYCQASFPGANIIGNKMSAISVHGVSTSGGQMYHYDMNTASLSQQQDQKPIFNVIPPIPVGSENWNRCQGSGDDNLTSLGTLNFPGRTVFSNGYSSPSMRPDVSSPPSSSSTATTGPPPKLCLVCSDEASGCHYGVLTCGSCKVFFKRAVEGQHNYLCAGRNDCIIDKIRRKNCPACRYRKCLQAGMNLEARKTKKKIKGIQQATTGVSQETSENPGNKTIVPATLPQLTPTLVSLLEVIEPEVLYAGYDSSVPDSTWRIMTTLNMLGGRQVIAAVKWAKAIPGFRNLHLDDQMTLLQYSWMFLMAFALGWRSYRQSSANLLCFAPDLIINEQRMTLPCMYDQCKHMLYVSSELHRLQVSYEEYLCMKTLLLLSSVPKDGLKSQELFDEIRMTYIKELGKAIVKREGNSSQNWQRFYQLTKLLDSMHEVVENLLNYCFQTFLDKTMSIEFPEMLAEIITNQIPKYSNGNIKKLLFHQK
Test: Radioligand filter binding assay, displacement of 3[H]-dexamethasone from hGR
Settings: read-out: GR Binding (% Inhibition at 1.7 μM)
Text: Dexamethasone hereafter referred to as dex was purchased from SIGMA. […] Human glucocorticoid receptors were extracted from Sf9 cells infected with a recombinant baculovirus transfer vector containing the cloned hGR genes. Recombinant baculovirus was generated utilizing the BAC-TO-BAC expression system (Life Technologies) in accordance to instruction from the supplier. The hGR coding sequences were cloned into a baculovirus transfer vector by standard techniques. The recombinant baculoviruses expressing hGR were amplified and used to infect Sf9 cells. Infected cells were harvested 48 hrs post infection. […] The concentration of hGR in the extract was measured as specific ^3[H]-dex binding with the G25-assay as described in J. Steroid Biochem. Molec. […] The extract was aliquoted and stored at −70° C.
The filter binding assay: Dilution series of the test compounds and dex as reference were made from 10 mM (1 mM dex) stock solutions in DMSO. 10 μl of the dilutions was added in duplicates to the wells. The cell extracts were diluted 10 fold in EPMo+MTG buffer (1 mM EDTA, HPO4 20 mM (pH8), 6 mM MTG). […] 110 μl of the diluted ^3[H]-dex were added to the wells. The final concentration of hGR in the experiment was estimated to 1 nM. All preparations were made in […] on ice and with +4° C. temperated buffers. The plates were incubated over night at +4° C. (15-20 hours).
The incubation was stopped by filtration through GF/B filter on the Tomtec Cellharvester. The filtration on the Tomtec Cellharvester was programmed as follows: 1) Preparation before filtration with EP buffer (1 mM EDTA 20 mM HPO4 (pH8)) 2×[Wash/Asp 0.6 sec., Asp 0.5 sec.]; 2) Prewet of GF/B filter with EP+PEI buffer (EP buffer, 0.3% Polyethylenimine) [Asp 0.8 sec.]; 3) Filtration/harvesting of the 96-well incubation plate 3×[Wash/Asp 0.6 sec., Asp 0.5 sec.]. The GF/B filter was dried for at least 1 hour at 65° C. A MeltiLex scintillation wax was melted onto the filter with the Microsealer. The filter was placed in a samplebag, which was thereafter trimmed with scissors to fit the filter cassette. The cassette were placed in the Microbeta and measured for 1 min/position, returning ccpm (corrected counts per minute).
b=((bmax−bmin)/(1+(I/IC50)^S))+bminI
The Microbeta-instrument generates the mean cpm (counts per minute) value/minute and corrects for individual variations between the detectors thus generating corrected cpm values.

SMILES	inhibition at 1.7 µM
CC[C@H](C)[C@H](NC(=O)CCCOc1ccc(Oc2ccc(CN(Cc3ccccc3)c3cccc(NS(C)(=O)=O)c3C)cc2)cc1)C(=O)O [Example 259, N-[4-(4-{4-[(benzyl{2-methyl-3-[(methylsulfonyl)amino]phenyl}amino)methyl]phenoxy}phenoxy)butanoyl]-L-isoleucine]	91.2%
Cc1c(NS(C)(=O)=O)cccc1N(Cc1ccccc1)Cc1ccc(Oc2ccc(OCCCCC(=O)NCCC(=O)O)cc2)cc1 [Example 262, N-[5-(4-{4-[(benzyl{2-methyl-3-[(methylsulfonyl)amino]phenyl}amino)methyl]phenoxy}phenoxy)pentanoyl]-beta-alanine]	92.2%
Cc1c(NS(C)(=O)=O)cccc1N(Cc1ccccc1)Cc1ccc(Oc2ccc(OCCCC(=O)N[C@@H](CO)C(=O)O)cc2)cc1 [Example 258, N-[4-(4-{4-[(benzyl{2-methyl-3-[(methylsulfonyl)amino]phenyl}amino)methyl]phenoxy}phenoxy)butanoyl]-L-serine]	91.6%
Cc1c(NS(C)(=O)=O)cccc1N(Cc1ccccc1)Cc1ccc(-c2ccccc2C#N)cc1 [Example 146, N-(3-{benzyl[(2′-cyano-1,1′-biphenyl-4-yl)methyl]amino}-2-methylphenyl)methanesulfonamide]	28.1%
Cc1c(NS(C)(=O)=O)cccc1N(Cc1ccccc1)Cc1ccc(Oc2ccc(OCCCC(=O)O)cc2)cc1 [Example 233, 4-(4-{4-[(benzyl{2-methyl-3-[(methylsulfonyl)amino]phenyl}amino)methyl]phenoxy}phenoxy)butanoic acid]	96.8%
CCOc1ccc(CN(Cc2ccc(F)cc2F)c2cccc(NS(C)(=O)=O)c2C)cc1 [Example 142, N-{3-[(2,4-difluorobenzyl)(4-ethoxybenzyl)amino]-2-methylphenyl}methanesulfonamide]	90.4%
Cc1c(NS(C)(=O)=O)cccc1N(Cc1ccccc1)Cc1ccc(Oc2cccc(OC(CCO)C(=O)O)c2)cc1 (stereo not shown) [Example 113, 2-(3-{4-[(benzyl{2-methyl-3-[(methylsulfonyl)amino]phenyl}amino)methyl]phenoxy}phenoxy)-4-hydroxybutanoic acid]	96.4%
Cc1c(NS(C)(=O)=O)cccc1N(Cc1ccccc1)Cc1ccc(Oc2ccc(OCCCC(=O)N[C@@H](CCC(N)=O)C(=O)O)cc2)cc1 [Example 260, N˜2˜-[4-(4-{4-[(benzyl{2-methyl-3-[(methylsulfonyl)amino]phenyl}amino)methyl]phenoxy}phenoxy)butanoyl]-L-glutamine]	91.3%
Cc1c(NS(C)(=O)=O)cccc1N(Cc1ccccc1)Cc1ccc(Oc2ccc(OCCCCC(=O)N[C@H](C(=O)O)C(C)C)cc2)cc1 [Example 266, N-[5-(4-{4-[(benzyl{2-methyl-3-[(methylsulfonyl)amino]phenyl}amino)methyl]phenoxy}phenoxy)pentanoyl]-L-valine]	90.7%
Cc1c(NS(C)(=O)=O)cccc1N(Cc1ccccc1)Cc1ccc(Oc2ccc(OCCCCC(=O)NCCCC(=O)O)cc2)cc1 [Example 263, 4-{[5-(4-{4-[(benzyl{2-methyl-3-[(methylsulfonyl)amino]phenyl}amino)methyl]phenoxy}phenoxy)pentanoyl]amino}butanoic acid]	91.7%
CCOC(=O)CCNC(=O)c1ccc(Oc2ccc(CN(Cc3ccc(F)cc3F)c3cccc(NS(C)(=O)=O)c3C)cc2)cc1 [Example 68, ethyl N-(4-{4-[((2,4-difluorobenzyl){2-methyl-3-[(methylsulfonyl)amino]phenyl}amino)methyl]phenoxy}benzoyl)-beta-alaninate]	90.4%
Cc1c(NS(C)(=O)=O)cccc1N(Cc1ccccc1)Cc1ccc(Oc2ccc(OCCCC(=O)NCC(=O)O)cc2)cc1 [Example 251, N-[4-(4-{4-[(benzyl{2-methyl-3-[(methylsulfonyl)amino]phenyl}amino)methyl]phenoxy}phenoxy)butanoyl]glycine]	94.2%

The remaining lines, values ahead:

inhibition at 1.7 µM	SMILES
95.7%	Cc1c(NS(C)(=O)=O)cccc1N(Cc1ccc(Br)cc1)Cc1ccc(Oc2ccc(Cl)c(OCC(=O)O)c2)cc1 [Example 308, (5-(4-(((4-bromobenzyl)(2-methyl-3-((methylsulfonyl)amino)phenyl)amino)methyl)phenoxy)-2-chlorophenoxy)acetic acid]
89.1%	Cc1c(NS(C)(=O)=O)cccc1N(Cc1ccccc1)Cc1ccc(Oc2cccc(OCc3cccnc3)c2)cc1 [Example 290, N-[3-(benzyl{4-[3-(pyridin-3-ylmethoxy)phenoxy]benzyl}amino)-2-methylphenyl]methanesulfonamide]
97.3%	Cc1c(NS(C)(=O)=O)cccc1N(Cc1ccc(Oc2ccc(Cl)c(OCC(=O)O)c2)cc1)Cc1ccc(Cl)cc1Br [Example 312, (5-(4-(((2-bromo-4-chlorobenzyl)(2-methyl-3-((methylsulfonyl)amino)phenyl)amino)methyl)phenoxy)-2-chlorophenoxy)acetic acid]
97.4%	Cc1c(NS(C)(=O)=O)cccc1N(Cc1ccc(Oc2ccc(Cl)c(OCC(=O)O)c2)cc1)Cc1ccc(F)cc1Cl [Example 311, (2-chloro-5-(4-(((2-chloro-4-fluorobenzyl)(2-methyl-3-((methylsulfonyl)amino)phenyl)amino)methyl)phenoxy)phenoxy)acetic acid]
96.4%	Cc1c(NS(C)(=O)=O)cccc1N(Cc1ccc(Oc2ccc(Cl)c(O[C@H](C)C(=O)O)c2)cc1)Cc1ccc(F)cc1F [Example 321, (2R)-2-(2-chloro-5-(4-(((2,4-difluorobenzyl)(2-methyl-3-((methylsulfonyl)amino)phenyl)amino)methyl)phenoxy)phenoxy)propanoic acid]
90.8%	Cc1c(NS(C)(=O)=O)cccc1N(Cc1ccccc1)Cc1ccc(Oc2ccc(OCCCCC(=O)NC3CCOC3=O)cc2)cc1 (stereo not shown) [Example 268, 5-(4-{4-[(benzyl{2-methyl-3-[(methylsulfonyl)amino]phenyl}amino)methyl]phenoxy}phenoxy)-N-(2-oxotetrahydrofuran-3-yl)pentanamide]
96.6%	Cc1c(NS(C)(=O)=O)cccc1N(Cc1ccc(Oc2ccc(Cl)c(OCC(=O)O)c2)cc1)Cc1ccc(C(=O)c2ccccc2)cc1 [Example 314, (5-(4-(((4-benzoylbenzyl)(2-methyl-3-((methylsulfonyl)amino)phenyl)amino)methyl)phenoxy)-2-chlorophenoxy)acetic acid]
90.2%	Cc1c(NS(C)(=O)=O)cccc1N(Cc1ccccc1)Cc1ccc(Oc2ccc(OCC(=O)N(C)CC(=O)O)cc2)cc1 [Example 272, N-[(4-{4-[(benzyl{2-methyl-3-[(methylsulfonyl)amino]phenyl}amino)methyl]phenoxy}phenoxy)acetyl]-N-methylglycine]
89.5%	Cc1c(NS(C)(=O)=O)cccc1N(Cc1ccccc1)Cc1ccc(Oc2cccc(OCCCC(=O)N3CCC(C(=O)O)CC3)c2)cc1 [Example 280, 1-[4-(3-{4-[(benzyl{2-methyl-3-[(methylsulfonyl)amino]phenyl}amino)methyl]phenoxy}phenoxy)butanoyl]piperidine-4-carboxylic acid]
91.7%	Cc1c(NS(C)(=O)=O)cccc1N(Cc1ccccc1)Cc1ccc(Oc2cccc(OCCCC(=O)N3CCCC(C(=O)O)C3)c2)cc1 (stereo not shown) [Example 279, 1-[4-(3-{4-[(benzyl{2-methyl-3-[(methylsulfonyl)amino]phenyl}amino)methyl]phenoxy}phenoxy)butanoyl]piperidine-3-carboxylic acid]
